Patent US8406870B2, “Treating cancer using electromagnetic fields in combination with other treatment regimens” (priority 2006, dated 2013)
Read-outs that look alike come from different tables or passages of the source.

Experiments:
[1] = test system: mouse melanoma (B16F10) cells; assay: XTT cell proliferation assay, first set of experiments; assay type: cell-based; conditions: 24 h
Protocol: (§1) The MDA-231 and B16F10 cells were obtained from ATCC (USA). […] The experiments were performed in 35 mm Petri dishes (NUNC, USA). Cisplatin and Taxol were obtained from Sigma (USA). A cell proliferation assay kit was obtained from Biological Industries Ltd., Israel. […] XTT is cleaved to formazan (absorbs at 450-500 nm) by the “succinate-tetrazolium reductase” system of the respiratory chain of the mitochondria and is active only in viable cells. Therefore, the amount of formazan dye (A450 nm) formed directly correlates to the number of metabolically active cells in culture. The XTT assay is widely used for the measurement of cell proliferation in response to growth factors, cytokines, mitogens, nutrients, anti-cancer drugs and physiological mediators.) The media in the Petri dish was replaced by fresh media (3 ml with or without Taxol or Cisplatin), thermo-couples were placed at the center, and the dish cover was replaced by one with attached electrodes. Cell samples without […] treatment were placed in CO2 incubator at 37° C. for 24 hours, while […] treated samples were placed in CO2 incubator at 25° C., also for 24 hours. Final incubation temperature of […] treated samples was 37±0.7° C. due to heating induced by TTFields (as measured by inserted thermo-couples). […] The rate of cell proliferation was calculated as a ratio of the final cell number to the initial cell number (OD1/OD0). […] For those samples that were subjected to TTFields, two-directional 200 kHz sinusoidal TTFields were generated by an appropriate waveform generator and an amplifier. The output of the amplifier was switched between two pairs of outputs every 250 mSec, with the outputs connected to two pairs of electrodes, insulated by a high dielectric constant ceramic (e.g., PMN-PT, EDO Corporation, Utah), positioned in the Petri dish as depicted in FIG. 1. Field intensity in the medium surrounding the cells was measured to be approximately 7 V/cm.

[2] = test system: human breast cancer (MDA-231) cells; assay: as above; assay type: cell-based; conditions: 24 h
Protocol: as §1

[3] = test system: human non-small cell lung cancer (H1299) cells; assay type: cell-based

## N.N.[Cl][Pt][Cl] [Cisplatin, cis-diamminedichloroplatinum(II)]
[1]; Cisplatin 15 μM
  cell proliferation, drug alone compared with drug + TTFields: reduced cell proliferation to a lesser extent
[2]; Cisplatin 15 μM + TTFields 200 kHz approx. 7 V/cm
  cell proliferation under combined treatment: complete cell proliferation arrest
[2]; Cisplatin 15 μM alone
  reduced cell proliferation as compared with the control: 63%

## O=P1(N(CCCl)CCCl)NCCCO1 (centres unmarked) [Cyclophosphamide]
MDA-MB-231 cells; 30 mM Cyclophosphamide + 1.75 V/cm TTFields applied for 1 hour
  effectiveness of combined treatment: not effective
MDA-MB-231 cells; 30 mM Cyclophosphamide + 1.75 V/cm TTFields applied for 6 hours or more
  effectiveness of combined treatment: fully effective

## CC(=O)O[C@H]1C(=O)[C@@]2(C)[C@H]([C@H](OC(=O)c3ccccc3)[C@]3(O)C[C@H](OC(=O)[C@H](O)[C@@H](NC(=O)c4ccccc4)c4ccccc4)C(C)=C1C3(C)C)[C@]1(OC(C)=O)CO[C@@H]1C[C@@H]2O [Paclitaxel]
[1]; Taxol 0.05 μM
  cell proliferation, drug alone compared with drug + TTFields: reduced cell proliferation to a lesser extent
[2]; Taxol 0.05 μM + TTFields 200 kHz approx. 7 V/cm
  cells died under the influence of the combined treatment: about 40%
[2]; Taxol 0.05 μM alone
  reduced cell proliferation as compared with the control: 70%
[3]; Paclitaxel + TTFields 1.25 V/cm
  Combination index CI40: 0.73
[3]; Paclitaxel + TTFields 1.25 V/cm and 1.75 V/cm, all concentrations studied
  effect on cell proliferation rate, combination versus drug alone: significant additional decrease in cell proliferation rate
[3]; Paclitaxel + TTFields 1.75 V/cm
  Combination index CI40: 0.98
[3]; Paclitaxel alone at concentrations up to 500 nM
  induction of cell death: not observed
[3]; Paclitaxel alone, concentrations above 200 nM, 24 h
  cell proliferation rate (% of control): 55%
[3]; higher concentrations of Paclitaxel in combination with TTFields
  induction of cell death: cell death is induced
